16 compounds from US20250215029A1 (Recludix Pharma, Inc., priority 2022, published 2025) can be followed below.

Like-named read-outs stand apart in the source and are kept apart here.

The target in test [1] is T1, Recombinant STAT3 protein (STAT3 (G127-I722)) (Homo sapiens, UniProt P40763).
T1 construct: Recombinant STAT3 protein (STAT3 (G127-I722))
The test is described as follows: STAT3 Fluorescence Polarization (FP) Assay. In kind it is binding. Particulars: probe 5-FAM-GpYLPQTV-NH2 2 nM, 45-minute incubation. In short, it runs like this:
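Compounds in serial dilution receive a premix of STAT3 (G127-I722, 25 nM) and fluorescent phosphotyrosine peptide 5-FAM-GpYLPQTV-NH2 (2 nM) at pH 7.4. After 45 min at room temperature, FP is measured and IC50 derived by nonlinear regression.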

Test [2] concerns the target T2, Recombinant STAT6 protein (STAT6 (W123-T658)) (Homo sapiens, UniProt P42226).
T2 construct: Recombinant STAT6 protein (STAT6 (W123-T658))
T2 sequence (P42226 123-658): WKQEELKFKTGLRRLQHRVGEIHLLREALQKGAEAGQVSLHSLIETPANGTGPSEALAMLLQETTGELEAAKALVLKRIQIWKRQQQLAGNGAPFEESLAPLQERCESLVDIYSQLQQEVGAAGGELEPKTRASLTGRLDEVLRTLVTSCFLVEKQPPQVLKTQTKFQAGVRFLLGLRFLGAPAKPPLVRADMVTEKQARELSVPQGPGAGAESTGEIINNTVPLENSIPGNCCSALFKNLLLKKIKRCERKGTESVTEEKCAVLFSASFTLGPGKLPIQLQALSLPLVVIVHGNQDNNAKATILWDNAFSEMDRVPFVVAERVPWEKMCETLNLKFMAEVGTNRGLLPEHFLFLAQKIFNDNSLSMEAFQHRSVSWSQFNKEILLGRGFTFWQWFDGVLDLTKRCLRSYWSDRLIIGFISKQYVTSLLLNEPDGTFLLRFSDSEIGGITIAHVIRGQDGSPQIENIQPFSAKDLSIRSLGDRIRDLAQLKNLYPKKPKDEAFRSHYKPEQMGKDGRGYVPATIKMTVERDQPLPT
The experiment in a line: STAT6 Fluorescence Polarization (FP) Assay. In kind it is binding. Particulars: probe 5-FAM-Ap[…]-NH2 2 nM, 45-minute incubation. In short, it runs like this:
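STAT6 (W123-T658) at 250 nM was mixed with 2 nM 5-FAM-labeled phosphotyrosine peptide probe in HEPES pH 7.4 buffer with NaCl, EDTA, Tween 20 and DTT, then added to serially diluted compounds at 1% DMSO final. Polarization was read after 45 min at room temperature; IC50 came from nonlinear regression of mP versus log concentration.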

[3] abbreviates: STAT3 (G127-I722) 25 nM, read-out: STAT3 (FP assay IC50 class).
Setting [4] is: STAT6 (W123-T658) 250 nM, read-out: STAT6 (FP assay IC50 class).
[5] abbreviates: STAT3 25 nM, read-out: STAT3 (FP assay IC50).
[6] abbreviates: STAT6 250 nM, read-out: STAT6 (FP assay IC50).

T1 sequence (P40763 127-722): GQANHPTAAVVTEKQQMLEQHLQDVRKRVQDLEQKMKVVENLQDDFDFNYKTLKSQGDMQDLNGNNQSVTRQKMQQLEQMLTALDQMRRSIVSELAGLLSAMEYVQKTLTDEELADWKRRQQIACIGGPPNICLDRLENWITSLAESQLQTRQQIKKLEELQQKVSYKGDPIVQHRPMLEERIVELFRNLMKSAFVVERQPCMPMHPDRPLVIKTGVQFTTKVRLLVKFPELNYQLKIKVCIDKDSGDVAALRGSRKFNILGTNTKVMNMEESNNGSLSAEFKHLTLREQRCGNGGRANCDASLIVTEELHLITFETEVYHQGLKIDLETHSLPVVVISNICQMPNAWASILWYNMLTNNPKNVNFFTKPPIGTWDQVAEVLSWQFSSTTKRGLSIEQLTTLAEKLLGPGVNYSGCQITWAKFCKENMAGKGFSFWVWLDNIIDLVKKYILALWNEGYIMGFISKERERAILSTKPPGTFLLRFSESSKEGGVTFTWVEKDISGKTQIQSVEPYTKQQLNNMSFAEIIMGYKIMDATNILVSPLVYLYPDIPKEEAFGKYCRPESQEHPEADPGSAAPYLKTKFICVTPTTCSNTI

Usually IC50 stands for the concentration at which inhibition is half-maximal. Take `O=C(N[C@H]1CCCC[C@H]2CC[C@@H](C(=O)N3C[C@H](c4cc[nH]c(=O)c4)CC34CC4)N2C1=O)c1ccc2ccc(CP(=O)(O)O)cc2c1` [Compound 882, ((7-(((3S,6S,10aS)-5-oxo-3-((S)-6-(2-oxo-1,2-dihydropyridin-4-yl)-4-azaspiro[2.4]heptane-4-carbonyl)decahydropyrrolo[1,2-a]azocin-6-yl)carbamoyl)naphthalen-2-yl)methyl) phosphonic acid]: the IC50 in test [1] (setting [3]) lay within 1 to 10 µM; in test [2] (setting [4]), 0.3 to 3 µM.
The matching figures for `CO[C@@H]1CC[C@@H](NC(=O)[C@@H]2CC[C@@H]3CCC[C@H](NC(=O)c4cc5cc(C(F)P(=O)(O)O)ccc5s4)C(=O)N32)C1` (stereo partly drawn) [Compound 536, (fluoro(2-(((3S,6S,9aS)-3-(((1R,3R)-3-methoxycyclopentyl)carbamoyl)-5-oxooctahydro-1H-pyrrolo[1,2-a]azepin-6-yl)carbamoyl)benzo[b]thiophen-5-yl)methyl)phosphonic acid]: 1 to 10 µM and 3 to 30 µM.
Turning to `O=C(N[C@H]1CCC[C@H]2CC[C@@H](C(=O)N3CC(c4cnccc4O)C3)N2C1=O)c1cc2cc(C(F)P(=O)(O)O)ccc2s1` (stereo partly drawn) [Compound 540, (fluoro(2-(((3S,6S,9aS)-3-(3-(4-hydroxypyridin-3-yl)azetidine-1-carbonyl)-5-oxooctahydro-1H-pyrrolo[1,2-a]azepin-6-yl)carbamoyl)benzo[b]thiophen-5-yl)methyl)phosphonic acid], the IC50 in test [1] (setting [3]) was under 0.1 µM; in test [2] (setting [4]), 0.3 to 3 µM.
For `Cc1cccnc1N1C[C@H](NC(=O)[C@@H]2CC[C@@H]3CCCC[C@H](NC(=O)c4cc5cc(C(F)P(=O)(O)O)ccc5s4)C(=O)N32)[C@@H](F)C1` (stereo partly drawn) [Compound 555, (fluoro(2-(((3S,6S,10aS)-3-(((3S,4S)-4-fluoro-1-(3-methylpyridin-2-yl)pyrrolidin-3-yl)carbamoyl)-5-oxodecahydropyrrolo[1,2-a]azocin-6-yl)carbamoyl)benzo[b]thiophen-5-yl)methyl)phosphonic acid], in that order: 0.1 to 1 µM and 3 to 30 µM.
In the case of `O=C(N[C@H]1CCC[C@H]2CC[C@@H](C(=O)N3CC(C4=CCCOC4)C3)N2C1=O)c1cc2cc(CP(=O)(O)O)ccc2s1` [Compound 672, ((2-(((3S,6S,9aS)-3-(3-(5,6-dihydro-2H-pyran-3-yl)azetidine-1-carbonyl)-5-oxooctahydro-1H-pyrrolo[1,2-a]azepin-6-yl)carbamoyl)benzo [b]thiophen-5-yl)methyl) phosphonic acid], the IC50 in test [1] (setting [3]) fell in the range of 1 to 10 µM; in test [2] (setting [4]) it was 3 to 30 µM.
The matching figures for `CCc1ccncc1C1CN(C(=O)[C@@H]2CC[C@@H]3CCC[C@H](NC(=O)c4cc5cc(CP(=O)(O)O)ccc5s4)C(=O)N32)C1` [Compound 503, ((2-(((3S,6S,9aS)-3-(3-(4-ethylpyridin-3-yl)azetidine-1-carbonyl)-5-oxooctahydro-1H-pyrrolo[1,2-a]azepin-6-yl)carbamoyl)benzo[b]thiophen-5-yl)methyl)phosphonic acid]: 0.1 to 1 µM and 3 to 30 µM.
For `O=C(N[C@H]1CCCC[C@H]2CC[C@@H](C(=O)N[C@@H](CO)Cc3cccnc3)N2C1=O)c1cc2cc(C(F)(F)P(=O)(O)O)ccc2s1` [Compound 727, (difluoro(2-(((3S,6S,10aS)-3-(((R)-1-hydroxy-3-(pyridin-3-yl)propan-2-yl)carbamoyl)-5-oxodecahydropyrrolo [1,2-a]azocin-6-yl)carbamoyl)benzo [b]thiophen-5-yl)methyl) phosphonic acid], in that order: 1 to 10 µM and 3 to 30 µM.
For `O=C(N[C@H]1CCC[C@H]2CC[C@@H](C(=O)N3CC(c4cccnc4)C3)N2C1=O)c1cc2cc(CP(=O)(O)O)ccc2[nH]1` [Compound 720, ((2-(((3S,6S,9aS)-5-oxo-3-(3-(pyridin-3-yl)azetidine-1-carbonyl)octahydro-1H-pyrrolo[1,2-a]azepin-6-yl)carbamoyl)-1H-indol-5-yl)methyl) phosphonic acid], in that order: 1 to 10 µM and 3 to 30 µM.
With `CC1(C)C[C@H](c2ccccc2)CN1C(=O)[C@@H]1CC[C@@H]2CCCC[C@H](NC(=O)c3cc4cc(C(F)(F)P(=O)(O)O)ccc4s3)C(=O)N21` [Compound 815, ((2-(((3S,6S,10aS)-3-((R)-2,2-dimethyl-4-phenylpyrrolidine-1-carbonyl)-5-oxodecahydropyrrolo [1,2-a]azocin-6-yl)carbamoyl)benzo [b]thiophen-5-yl)difluoromethyl) phosphonic acid], the IC50 in test [1] (setting [3]) was in the range of 1 to 10 µM; in test [2] (setting [4]), 0.3 to 3 µM.
Regarding `Cc1[nH]nc2ccc(NC(=O)[C@@H]3CC[C@@H]4CCCC[C@H](NC(=O)c5cc6cc(C(F)(F)P(=O)(O)O)ccc6s5)C(=O)N43)cc12` [Compound 59, (difluoro(2-(((3S,6S,10aS)-3-((3-methyl-2H-indazol-5-yl)carbamoyl)-5-oxodecahydro-pyrrolo[1,2-a]azocin-6-yl)carbamoyl)benzo[b]thiophen-5-yl)methyl) phosphonic acid], the IC50 fell in the range of 0.1 to 1 µM in test [1] (setting [5]) and 0.3 to 3 µM in test [2] (setting [6]).
Turning to `Cc1ccncc1C1CN(C(=O)[C@@H]2CC[C@@H]3CCCC[C@H](NC(=O)c4cc5cc(C(F)(F)P(=O)(O)O)ccc5s4)C(=O)N32)C1` [Compound 499, (difluoro(2-(((3S,6S,10aS)-3-(3-(4-methylpyridin-3-yl)azetidine-1-carbonyl)-5-oxodecahydropyrrolo[1,2-a]azocin-6-yl)carbamoyl)benzo[b]thiophen-5-yl)methyl)phosphonic acid], the IC50 in test [1] (setting [3]) is under 0.1 µM; in test [2] (setting [4]) it was 0.3 to 3 µM.
Take `O=C(N[C@H]1CCCC[C@H]2CC[C@@H](C(=O)N3CC(N4CCOCC4)C3)N2C1=O)c1cc2cc(C(F)(F)P(=O)(O)O)ccc2s1` [Compound 113, (difluoro(2-(((3S,6S, 10aS)-3-(3-morpho-linoazetidine-1-carbonyl)-5-oxodecahydropyrrolo[1,2-a]azocin-6-yl)carbamoyl)benzo[b]thiophen-5-yl)methyl)ph osphonic acid]: the IC50 was 0.1 to 1 µM in test [1] (setting [5]) and 3 to 30 µM in test [2] (setting [6]).
On to `Cc1ccncc1C1CN(C(=O)[C@@H]2CC[C@@H]3CCC[C@H](NC(=O)c4cc5cc(C(F)(F)P(=O)(O)O)ccc5s4)C(=O)N32)C1` [Compound 783, (difluoro(2-(((3S,6S,9aS)-3-(3-(4-methylpyridin-3-yl)azetidine-1-carbonyl)-5-oxooctahydro-1H-pyrrolo[1,2-a]azepin-6-yl)carbamoyl)benzo [b]thiophen-5-yl)methyl) phosphonic acid], for which the IC50 in test [1] (setting [3]) was over 10 µM; in test [2] (setting [4]) it was over 30 µM.
The matching figures for `COc1c(C2CN(C(=O)[C@@H]3CC[C@@H]4CCC[C@H](NC(=O)c5cc6cc(C(F)P(=O)(O)O)ccc6s5)C(=O)N43)C2)ccnc1F` (stereo partly drawn) [Compound 925, (fluoro(2-(((3S,6S,9aS)-3-(3-(2-fluoro-3-methoxypyridin-4-yl)azetidine-1-carbonyl)-5-oxooctahydro-1H-pyrrolo[1,2-a]azepin-6-yl)carbamoyl)benzo [b]thiophen-5-yl)methyl) phosphonic acid]: under 0.1 µM and 3 to 30 µM.
The matching figures for `Cc1ccncc1C1CN(C(=O)[C@@H]2CC[C@@H]3C[C@H](C)CC[C@H](NC(=O)c4cc5cc(CP(=O)(O)O)ccc5s4)C(=O)N32)C1` [Compound 656, ((2-(((3S,6S,9R,10aR)-9-methyl-3-(3-(4-methylpyridin-3-yl)azetidine-1-carbonyl)-5-oxodecahydropyrrolo [1,2-a]azocin-6-yl)carbamoyl)benzo [b]thiophen-5-yl)methyl) phosphonic acid]: 0.1 to 1 µM and 3 to 30 µM.
The matching figures for `O=C(N[C@H]1CCCC[C@H]2CC[C@@H](C(=O)N3CC(c4ccc[nH]c4=O)C3)N2C1=O)c1cc2cc(C(F)(F)P(=O)(O)O)ccc2s1` [Compound 803, (difluoro(2-(((3S,6S,10aS)-5-oxo-3-(3-(2-oxo-1,2-dihydropyridin-3-yl)azetidine-1-carbonyl)decahydropyrrolo[1,2-a]azocin-6-yl)carbamoyl)benzo [b]thiophen-5-yl)methyl) phosphonic acid]: under 0.1 µM and 0.3 to 3 µM.
